What was measured:
Type in all cases: in vivo
Kochia (Kochia scoparia) [1] = assay: Test A preemergence; settings: Bassia scoparia, pre-emergence, 240 h, 0 to 100 scale where 0 is no effect and 100 is complete control, read-out: Kochia plant response rating
Outline: (§1)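 Seeds sprayed preemergence with a directed soil spray, or plants at 2 to 10 cm height and one- to two-leaf stage sprayed postemergence, with test chemicals in a non-phytotoxic solvent mixture containing surfactant, in loam soil–sand blend. Injury rated visually against untreated controls after about 10 d in greenhouse, 0 (no effect) to 100 (complete control).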

[2] = tested on: ragweed (common ragweed, Ambrosia elatior); assay: Test A preemergence; settings: Ambrosia artemisiifolia, pre-emergence, 240 h, 0 to 100 scale where 0 is no effect and 100 is complete control, read-out: Ragweed plant response rating
Outline: as §1

[3] = tested on: pigweed (Amaranthus retroflexus); assay: Test A preemergence; settings: Amaranthus retroflexus, pre-emergence, 240 h, 0 to 100 scale where 0 is no effect and 100 is complete control, read-out: Pigweed plant response rating
[4] = tested on: giant foxtail (Setaria faberii); assay: Test A preemergence; settings: Setaria faberi, pre-emergence, 240 h, 0 to 100 scale where 0 is no effect and 100 is complete control, read-out: Foxtail, Giant plant response rating
Outline: as §1

[5] = tested on: ryegrass, Italian (Italian ryegrass, Lolium multiflorum); assay: Test A preemergence; settings: Lolium multiflorum, pre-emergence, 240 h, 0 to 100 scale where 0 is no effect and 100 is complete control, read-out: Ryegrass, Italian plant response rating
Outline: as §1

[6] = tested on: barnyardgrass (Echinochloa crus-galli); assay: Test A preemergence; settings: Echinochloa crus-galli, pre-emergence, 240 h, 0 to 100 scale where 0 is no effect and 100 is complete control, read-out: Barnyardgrass plant response rating
Outline: as §1

[7] = tested on: ducksalad (Heteranthera limosa); assay: Test B flooded paddy test; settings: Heteranthera limosa, 250 g ai/ha, Flood; 0 to 100 scale where 0 is no effect and 100 is complete control; read-out: Ducksalad plant response rating
Outline: (§2)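 Evaluation by eye, against controls, occurred 13–15 d post-treatment in a greenhouse, using a 0 (no effect) to 100 (complete control) scale. Application was into the paddy water, 3 cm deep over the soil, on 2-leaf plants.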

rice (Oryra sativa) = assay: Test B flooded paddy test; settings: Oryza sativa, 250 g ai/ha, Flood; 0 to 100 scale where 0 is no effect and 100 is complete control; read-out: Rice plant response rating
Outline: as §2

[8] = tested on: sedge, umbrella (small-flower umbrella sedge, Cyperus difformis); assay: Test B flooded paddy test; settings: Cyperus difformis, 250 g ai/ha, Flood; 0 to 100 scale where 0 is no effect and 100 is complete control; read-out: Sedge, Umbrella plant response rating
Outline: as §2

[9] = tested on: barnyardgrass (Echinochloa crus-galli); assay: Test B flooded paddy test; settings: Echinochloa crus-galli, 250 g ai/ha, Flood; 0 to 100 scale where 0 is no effect and 100 is complete control; read-out: Barnyardgrass plant response rating
Outline: as §2

Kochia (Kochia scoparia) [10] = assay: Test A postemergence; settings: Bassia scoparia, post-emergence, 240 h
Outline: as §1

corn (Zea mays) = assay: Test A postemergence; settings: Zea mays, post-emergence, 240 h
Outline: as §1

[11] = tested on: Galium (catchweed bedstraw, Galium aparine); assay: Test A postemergence; settings: Galium, post-emergence, 240 h
Outline: as §1

[12] = tested on: ragweed (common ragweed, Ambrosia elatior); assay: Test A postemergence; settings: Ambrosia artemisiifolia, post-emergence, 240 h
Outline: as §1

[13] = tested on: pigweed (Amaranthus retroflexus); assay: Test A postemergence; settings: Amaranthus retroflexus, post-emergence, 240 h
Outline: as §1

[14] = tested on: wheat (Triticum aestivum); assay: Test A postemergence; settings: Triticum aestivum, post-emergence, 240 h
Outline: as §1

[15] = tested on: giant foxtail (Setaria faberii); assay: Test A postemergence; settings: Setaria faberi, post-emergence, 240 h
Outline: as §1

[16] = tested on: ryegrass, Italian (Italian ryegrass, Lolium multiflorum); assay: Test A postemergence; settings: Lolium multiflorum, post-emergence, 240 h
Outline: as §1

[17] = tested on: barnyardgrass (Echinochloa crus-galli); assay: Test A postemergence; settings: Echinochloa crus-galli, post-emergence, 240 h
Outline: as §1

[18] = tested on: blackgrass (Alopecurus myosuroides); assay: Test A postemergence; settings: Alopecurus myosuroides, post-emergence, 240 h
Outline: as §1

[19] = 125 g ai/ha, preemergence, approx. 10 d

**Q.** Which pest or weed control at 31 g/ha (Kochia (Kochia scoparia) [1]; 31 g ai/ha, Preemergence) does the source give for `CN1C[C@H](c2csc3c2CCCC3)[C@@H](C(=O)Nc2ccc(F)c(F)c2F)C1=O` [Compound 1079] here?
**A.** 0%

**Q.** What about the pest or weed control at 125 g/ha (Kochia (Kochia scoparia) [1]; [19]) of the same compound?
**A.** 0%

**Q.** And the pest or weed control at 31 g/ha ([2]; 31 g ai/ha, Preemergence)?
**A.** 0%

**Q.** What about the pest or weed control at 125 g/ha [2, 19] of the same compound?
**A.** 0%

**Q.** What about the pest or weed control at 31 g/ha ([3]; 31 g ai/ha, Preemergence) of the same compound?
**A.** 0%

**Q.** And the pest or weed control at 125 g/ha [3, 19]?
**A.** 0%

**Q.** And the pest or weed control at 31 g/ha ([4]; 31 g ai/ha, Preemergence)?
**A.** 20%

**Q.** What about the pest or weed control at 125 g/ha [4, 19] of the same compound?
**A.** 100%

**Q.** What about the pest or weed control at 31 g/ha ([5]; 31 g ai/ha, Preemergence) of the same compound?
**A.** 0%

**Q.** And the pest or weed control at 125 g/ha [5, 19]?
**A.** 0%

**Q.** What about the pest or weed control at 31 g/ha ([6]; 31 g ai/ha, Preemergence) of the same compound?
**A.** 0%

**Q.** And the pest or weed control at 125 g/ha [6, 19]?
**A.** 80%

**Q.** What about the pest or weed control at 250 g/ha [7] of the same compound?
**A.** 30%

**Q.** What about the pest or weed control at 250 g/ha (rice (Oryra sativa)) of the same compound?
**A.** 20%

**Q.** And the pest or weed control at 250 g/ha [8]?
**A.** 0%

**Q.** And the pest or weed control at 250 g/ha [9]?
**A.** 60%

**Q.** And the pest or weed control at 125 g/ha (Kochia (Kochia scoparia) [10]; 125 g ai/ha, postemergence, visual injury on 0 to 100 scale (0 no effect, 100 complete control), approx. 10 d, read-out: Kochia plant response rating)?
**A.** 20%

**Q.** What about the pest or weed control at 31 g/ha (Kochia (Kochia scoparia) [10]; Postemergence, 31 g ai/ha, visual injury after approx. 10 d, 0 to 100 scale, 0 no effect, 100 complete control, read-out: Plant response rating, Kochia) of the same compound?
**A.** 0%

**Q.** What about the plant injury at 125 g/ha (corn (Zea mays); 125 g ai/ha, postemergence, visual injury on 0 to 100 scale (0 no effect, 100 complete control), approx. 10 d, read-out: Corn plant response rating) of the same compound?
**A.** 0%

**Q.** And the Corn plant response rating (crop injury, 0 = no effect, 100 = complete kill) at 31 g/ha (corn (Zea mays); Postemergence, 31 g ai/ha, visual injury after approx. 10 d, 0 to 100 scale, 0 no effect, 100 complete control)?
**A.** 0%

**Q.** What about the pest or weed control at 125 g/ha ([11]; 125 g ai/ha, postemergence, visual injury on 0 to 100 scale (0 no effect, 100 complete control), approx. 10 d, read-out: Galium plant response rating) of the same compound?
**A.** 0%

**Q.** What about the pest or weed control at 31 g/ha ([11]; Postemergence, 31 g ai/ha, visual injury after approx. 10 d, 0 to 100 scale, 0 no effect, 100 complete control, read-out: Plant response rating, Galium) of the same compound?
**A.** 0%

**Q.** What about the pest or weed control at 125 g/ha ([12]; 125 g ai/ha, postemergence, visual injury on 0 to 100 scale (0 no effect, 100 complete control), approx. 10 d, read-out: Ragweed plant response rating) of the same compound?
**A.** 0%

**Q.** What about the pest or weed control at 31 g/ha ([12]; Postemergence, 31 g ai/ha, visual injury after approx. 10 d, 0 to 100 scale, 0 no effect, 100 complete control, read-out: Plant response rating, Ragweed) of the same compound?
**A.** 0%

**Q.** And the pest or weed control at 125 g/ha ([13]; 125 g ai/ha, postemergence, visual injury on 0 to 100 scale (0 no effect, 100 complete control), approx. 10 d, read-out: Pigweed plant response rating)?
**A.** 0%

**Q.** And the pest or weed control at 31 g/ha ([13]; Postemergence, 31 g ai/ha, visual injury after approx. 10 d, 0 to 100 scale, 0 no effect, 100 complete control, read-out: Plant response rating, Pigweed)?
**A.** 0%

**Q.** And the plant injury at 125 g/ha ([14]; 125 g ai/ha, postemergence, visual injury on 0 to 100 scale (0 no effect, 100 complete control), approx. 10 d, read-out: Wheat plant response rating)?
**A.** 30%

**Q.** What about the plant injury at 31 g/ha ([14]; Postemergence, 31 g ai/ha, visual injury after approx. 10 d, 0 to 100 scale, 0 no effect, 100 complete control, read-out: Plant response rating, Wheat) of the same compound?
**A.** 0%

**Q.** And the pest or weed control at 125 g/ha ([15]; 125 g ai/ha, postemergence, visual injury on 0 to 100 scale (0 no effect, 100 complete control), approx. 10 d, read-out: Foxtail, Giant plant response rating)?
**A.** 20%

**Q.** What about the pest or weed control at 31 g/ha ([15]; Postemergence, 31 g ai/ha, visual injury after approx. 10 d, 0 to 100 scale, 0 no effect, 100 complete control, read-out: Plant response rating, Foxtail, Giant) of the same compound?
**A.** 0%

**Q.** And the pest or weed control at 125 g/ha ([16]; 125 g ai/ha, postemergence, visual injury on 0 to 100 scale (0 no effect, 100 complete control), approx. 10 d, read-out: Ryegrass, Italian plant response rating)?
**A.** 0%

**Q.** What about the pest or weed control at 31 g/ha ([16]; Postemergence, 31 g ai/ha, visual injury after approx. 10 d, 0 to 100 scale, 0 no effect, 100 complete control, read-out: Plant response rating, Ryegrass, Italian) of the same compound?
**A.** 0%

**Q.** And the pest or weed control at 125 g/ha ([17]; 125 g ai/ha, postemergence, visual injury on 0 to 100 scale (0 no effect, 100 complete control), approx. 10 d, read-out: Barnyardgrass plant response rating)?
**A.** 90%

**Q.** And the pest or weed control at 31 g/ha ([17]; Postemergence, 31 g ai/ha, visual injury after approx. 10 d, 0 to 100 scale, 0 no effect, 100 complete control, read-out: Plant response rating, Barnyardgrass)?
**A.** 20%

**Q.** What about the pest or weed control at 125 g/ha ([18]; 125 g ai/ha, postemergence, visual injury on 0 to 100 scale (0 no effect, 100 complete control), approx. 10 d, read-out: Blackgrass plant response rating) of the same compound?
**A.** 0%

**Q.** What about the pest or weed control at 31 g/ha ([18]; Postemergence, 31 g ai/ha, visual injury after approx. 10 d, 0 to 100 scale, 0 no effect, 100 complete control, read-out: Plant response rating, Blackgrass) of the same compound?
**A.** 0%

From US12077503B2, “Substituted cyclic amides and their use as herbicides” (FMC CORPORATION, priority 2015, dated 2024)
